Test results from patent US20210215714A1, “COMPLEMENT ALTERNATIVE PATHWAY-ASSOCIATED NEPHROPATHY BIOMARKERS” (Achillion Pharmaceuticals, Inc., priority 2018, published 2021).

What was measured:
AP activity [1] = assay: PNH erythrocyte hemolysis (AP activity in vitro); format: cell-based
AP activity [2] = assay: rabbit erythrocyte hemolysis (AP activity in vitro); format: cell-based; conditions: Oryctolagus cuniculus
C3c = assay: Phase 2a study: urinary C3c (Hycult Human C3c Elisa Kit);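 further: urine from C3 glomerulopathy or IC-MPGN patients, C3c quantified by sandwich ELISA with absorbance read at 450 nm against a human C3c standard curve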
Experimental: To measure urinary C3c production, patient urine samples were tested utilizing the Hycult Biotech Human C3c Elisa Kit (HK368) for the quantitation of C3c in urine. […] Urine samples were thawed and centrifuged at 15,000 rpm for one minute. The supernatant was transferred to a fresh tube and diluted with C3c dilution buffer. Samples and standards were added to microtiter wells coated with antibodies recognizing human C3c and incubated at 1 hour at 15-25° C. Following incubation, the wells were washed 4 times with Wash Solution, with an incubation period of 1 minute each time. A biotinylated tracer antibody was added and used to bind to the captured human C3c. Streptavidin-peroxidase conjugate was then added to bind to the biotinylated tracer antibody. Tetramethylbenzidine (TMB) was then added to the Streptavidin-peroxidase conjugate. The enzyme reaction was stopped by the addition of oxalic acid. The absorbance at 450 nm was measured with a spectrophotometer. A standard curve was obtained by plotting the absorbance (linear) versus the corresponding concentrations of the human C3c standards (log). The human C3c concentration of samples, which are run concurrently with the standards, were determined from the standard curve.

Bb = assay: Phase 2a study: Bb levels in plasma; format: in vivo, human; conditions: 14-day treatment, patients A-F
Experimental: Systemic complement proteins were measured in serum and plasma including serum Ba, plasma Bb, serum C3, serum Factor D, serum C4, and % Fragment C3.

AP activity [3] = assay: Wieslab assay (AP activity in vitro); format: biochemical

CC(=O)c1nn(CC(=O)N2C[C@H](F)C[C@H]2C(=O)Nc2cccc(Br)n2)c2ccc(-c3cnc(C)nc3)cc12 [Compound 1, (2S,4R)-1-(2-(3-acetyl-5-(2-methylpyrimidin-5-yl)-1H-indazol-1-yl)acetyl)-N-(6-bromopyridin-2-yl)-4-fluoropyrrolidine-2-carboxamide]
IC50 (AP activity [1]): 14 nM
IC50 (AP activity [2]): 27 nM
uC3c (C3c; Patient A, 100 mg TID, Day 1 predose): 25.4 ng/mL
uC3c (C3c; Patient A, 100 mg TID, Day 4): 15.2 ng/mL
uC3c (C3c; Patient A, 100 mg TID, Day 7-0 Hour): 7.1 ng/mL
uC3c (C3c; Patient A, 100 mg TID, Day 10): 9.9 ng/mL
uC3c (C3c; Patient A, 100 mg TID, Day 14): 3.6 ng/mL
uC3c (C3c; Patient A, 100 mg TID, Day 15 Taper): 6.8 ng/mL
uC3c (C3c; Patient A, 100 mg TID, Day 16 Taper): 4.1 ng/mL
uC3c (C3c; Patient A, 100 mg TID, Day 17 Taper): 8.5 ng/mL
uC3c (C3c; Patient A, 100 mg TID, Day 21): 7.8 ng/mL
uC3c (C3c; Patient A, 100 mg TID, Day 24): 11.4 ng/mL
uC3c (C3c; Patient A, 100 mg TID, Day 28): 15.6 ng/mL
uC3c (C3c; Patient A, 100 mg TID, Day 49): 32.8 ng/mL
uC3c (C3c; Patient B, 100 mg TID, Day 1 predose): 771.1 ng/mL
uC3c (C3c; Patient B, 100 mg TID, Day 4): 369.0 ng/mL
uC3c (C3c; Patient B, 100 mg TID, Day 7-0 Hour): 289.2 ng/mL
uC3c (C3c; Patient B, 100 mg TID, Day 10): 256.0 ng/mL
uC3c (C3c; Patient B, 100 mg TID, Day 14): 462.7 ng/mL
uC3c (C3c; Patient B, 100 mg TID, Day 15 Taper): 682.8 ng/mL
uC3c (C3c; Patient B, 100 mg TID, Day 16 Taper): 534.1 ng/mL
uC3c (C3c; Patient B, 100 mg TID, Day 17 Taper): 290.8 ng/mL
uC3c (C3c; Patient B, 100 mg TID, Day 21): 513.5 ng/mL
uC3c (C3c; Patient B, 100 mg TID, Day 24): 744.1 ng/mL
uC3c (C3c; Patient B, 100 mg TID, Day 28): 285.3 ng/mL
uC3c (C3c; Patient B, 100 mg TID, Day 49): >1000 ng/mL
uC3c (C3c; Patient C, 200 mg TID, Day 1 predose): <1.6 ng/mL
uC3c (C3c; Patient C, 200 mg TID, Day 4): <1.6 ng/mL
uC3c (C3c; Patient C, 200 mg TID, Day 7-0 Hour): <1.6 ng/mL
uC3c (C3c; Patient C, 200 mg TID, Day 10): <1.6 ng/mL
uC3c (C3c; Patient C, 200 mg TID, Day 14): <1.6 ng/mL
uC3c (C3c; Patient C, 200 mg TID, Day 15 Taper): <1.6 ng/mL
uC3c (C3c; Patient C, 200 mg TID, Day 17 Taper): <1.6 ng/mL
uC3c (C3c; Patient C, 200 mg TID, Day 21): <1.6 ng/mL
uC3c (C3c; Patient C, 200 mg TID, Day 24): 2.1 ng/mL
uC3c (C3c; Patient C, 200 mg TID, Day 28): <1.6 ng/mL
uC3c (C3c; Patient C, 200 mg TID, Day 49): <1.6 ng/mL
uC3c (C3c; Patient D, 200 mg TID, Day 1 predose): 8.8 ng/mL
uC3c (C3c; Patient D, 200 mg TID, Day 4): 5.3 ng/mL
uC3c (C3c; Patient D, 200 mg TID, Day 7-0 Hour): <1.6 ng/mL
uC3c (C3c; Patient D, 200 mg TID, Day 10): <1.6 ng/mL
uC3c (C3c; Patient D, 200 mg TID, Day 14): 3.7 ng/mL
uC3c (C3c; Patient D, 200 mg TID, Day 15 Taper): 3.6 ng/mL
uC3c (C3c; Patient D, 200 mg TID, Day 17 Taper): 4.8 ng/mL
uC3c (C3c; Patient D, 200 mg TID, Day 21): 5.8 ng/mL
uC3c (C3c; Patient D, 200 mg TID, Day 24): 5.1 ng/mL
uC3c (C3c; Patient D, 200 mg TID, Day 28): 5.1 ng/mL
uC3c (C3c; Patient D, 200 mg TID, Day 49): 7.0 ng/mL
uC3c (C3c; Patient E, 200 mg TID, Day 1 predose): 159.6 ng/mL
uC3c (C3c; Patient E, 200 mg TID, Day 4): 137.7 ng/mL
uC3c (C3c; Patient E, 200 mg TID, Day 7-0 Hour): 168.2 ng/mL
uC3c (C3c; Patient E, 200 mg TID, Day 10): 123.2 ng/mL
uC3c (C3c; Patient E, 200 mg TID, Day 14): 64.4 ng/mL
uC3c (C3c; Patient E, 200 mg TID, Day 15 Taper): 39.7 ng/mL
uC3c (C3c; Patient E, 200 mg TID, Day 16 Taper): 46.8 ng/mL
uC3c (C3c; Patient E, 200 mg TID, Day 17 Taper): 107.0 ng/mL
uC3c (C3c; Patient E, 200 mg TID, Day 21): 41.2 ng/mL
uC3c (C3c; Patient E, 200 mg TID, Day 24): 89.6 ng/mL
uC3c (C3c; Patient E, 200 mg TID, Day 28): 97.8 ng/mL
uC3c (C3c; Patient E, 200 mg TID, Day 49): 120.3 ng/mL
uC3c (C3c; Patient F, 200 mg TID, Day 1 predose): 216.3 ng/mL
uC3c (C3c; Patient F, 200 mg TID, Day 4): 63.0 ng/mL
uC3c (C3c; Patient F, 200 mg TID, Day 7-0 Hour): 25.8 ng/mL
uC3c (C3c; Patient F, 200 mg TID, Day 10): 43.9 ng/mL
uC3c (C3c; Patient F, 200 mg TID, Day 14): 31.8 ng/mL
uC3c (C3c; Patient F, 200 mg TID, Day 15 Taper): 24.2 ng/mL
uC3c (C3c; Patient F, 200 mg TID, Day 16 Taper): 30.0 ng/mL
uC3c (C3c; Patient F, 200 mg TID, Day 17 Taper): 32.4 ng/mL
uC3c (C3c; Patient F, 200 mg TID, Day 21): 64.0 ng/mL
uC3c (C3c; Patient F, 200 mg TID, Day 24): 34.4 ng/mL
uC3c (C3c; Patient F, 200 mg TID, Day 28): 41.5 ng/mL
uC3c (C3c; Patient F, 200 mg TID, Day 49): 154.5 ng/mL
Urinary C3c levels (C3c; two-week treatment): reduced significantly
Urinary C3c levels normalized to urinary creatinine or albumin (C3c; two-week treatment): reduced significantly
Plasma Bb (Bb): reduced
IC50 (AP activity [3]): 26 nM
